Experimental data as given in US20230286973A1, “PROTEIN SECRETION INHIBITORS” (KEZAR LIFE SCIENCES, priority 2020, published 2023).

Tests used:
[1] = system: multiple myeloma cell line U266B1; experiment: U266 Cell Viability Assay; type: cell-based, human; conditions: Homo sapiens, U-266, 48 h, U266B1 cells, Celltiter-Glo
Outline: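 48 h treatment, 37° C./5% CO2, RPMI 1640 + 10% FBS; viability by CellTiter-Glo luminescence.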

[2] = Liver Microsome Stability Assay (mouse); conditions: mouse liver microsomes, with NADPH, 1.0 uM compound
Method: (§1) Stability of a compound was assessed in the presence of liver microsomes from various sources—mouse, rat, monkey and human liver microsomes. 1.0 uM compound, 0.4% DMSO in 0.1 M Potassium Phosphate with 1.0 mg/mL liver microsomes, were incubated at 37° C. with or without 1 mM NADPH. The samples were quenched at 0, and 30 minutes.

[3] = system: multiple myeloma cell line NCI-H929; experiment: H929 Cell Viability Assay; type: cell-based, human; conditions: Homo sapiens, NCI-H929, 48 h, NCI-H929 cells, Celltiter-Glo
Outline: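 Plate the myeloma cells in RPMI 1640 with 10% FBS, add serially diluted compound, incubate for 48 hours at 37° C, then add CellTiter-Glo and read luciferase signal.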

[4] = Liver Microsome Stability Assay (rat); conditions: rat liver microsomes, with NADPH, 1.0 uM compound
Method: as §1

[5] = system: TNFα-FL/Gaussia Luciferase; experiment: Dox Induced TNFα-FL-Gluc Assay; type: cell-based; conditions: for IC50: 24 hr Dox induction, 293FRT/TO cells, mean, read-out: 24 hr Dox Inducible TNFaFLGluc 293FRT/TO: Mean IC50; for 24 hr Dox Inducible TNFaFLGluc 293FRT/TO: TNF/PD1: ratio of TNFaFLGluc IC50 to PD1ssGluc IC50, '<=>' given where both are I.A.
Outline: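 Cells are seeded one day ahead, then treated with compound plus doxycycline at 37 °C, 5% CO2. The stable Flp-In 293 T-REx line expresses full-length TNFα (amino acids 1-233) with Gaussia luciferase fused to its 3′ end, inducibly via T-REx.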

[6] = Liver Microsome Stability Assay (human); conditions: human liver microsomes, with NADPH, 1.0 uM compound
Method: as §1

[7] = system: HER3-ss+4aa/Gaussia Luciferase; experiment: Dox-Induced Her3-ss-Gluc Assay; type: cell-based; conditions: 24 hr Dox induction; 293FRT/TO cells; mean; read-out: 24 hr Dox Inducible Her3(ss + 4)Gluc 293FRT/TO: Mean IC50
Outline: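 Expression of a Gaussia luciferase reporter carrying the HER3 signal sequence plus 4 amino acids is induced by doxycycline in stably transfected Flp-In 293 T-REx cells. Compounds are added with doxycycline at 37° C., 5% CO2. Undefined stereocentres denote stereoisomer mixtures.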

[8] = system: IL-2-FL/Gaussia Luciferase; experiment: Dox Induced IL2-FL-Gluc Assay; type: cell-based; conditions: for IC50: 24 hr Dox induction, 293FRT/TO cells, mean, read-out: 24 hr Dox Inducible IL2FLGluc 293FRT/TO: Mean IC50; for 24 hr Dox Inducible IL2FLGluc 293FRT/TO: IL2/PD1: ratio of IL2FLGluc IC50 to PD1ssGluc IC50, '<=>' given where both are I.A.
Outline: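 Reporter is Gaussia luciferase fused to the 3′ end of full-length IL-2 (aa 1-153), expressed from a doxycycline-inducible T-REx construct in stably selected Flp-In 293 cells. Compounds were co-added with doxycycline and incubated at 37° C, 5% CO2.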

[9] = Liver Microsome Stability Assay (monkey); conditions: monkey liver microsomes, with NADPH, 1.0 uM compound
Method: as §1

[10] = system: PD1-ss+10aa/Gaussia Luciferase; experiment: Dox-Induced PD1-ss-Gluc Assay; type: cell-based; conditions: 24 hr Dox induction; 293FRT/TO cells; mean; read-out: 24 hr Dox Inducible PD1ssGluc 293FRT/TO: Mean IC50
Outline: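 Stable Flp-In 293 T-REx cells carried a doxycycline-inducible construct of Gaussia luciferase fused to the PD1 signal sequence plus 10 amino acids. Cells were plated the day before, then treated with compound dilutions in DMSO/media containing doxycycline at 37 °C, 5% CO2.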

Compound | EC50 [1] [nM] | Liver Microsome Stability (Multiple Species): Mouse - % Remaining after 30 min w/NADPH [2] [%] | EC50 [3] [nM] | Liver Microsome Stability (Multiple Species): Rat - % Remaining after 30 min w/NADPH [4] [%] | IC50 [5] [nM] | 24 hr Dox Inducible TNFaFLGluc 293FRT/TO: TNF/PD1 [5] | Liver Microsome Stability (Multiple Species): Human - % Remaining after 30 min w/NADPH [6] [%] | IC50 [7] [nM] | IC50 [8] [nM] | 24 hr Dox Inducible IL2FLGluc 293FRT/TO: IL2/PD1 [8] | Liver Microsome Stability (Multiple Species): Monkey - % Remaining after 30 min w/NADPH [9] [%] | IC50 [10] [nM]
CC(=O)Nc1ccc(N2CCC[C@@H]2c2csc(NC(=O)c3cccn3CC3CCOCC3)n2)cc1 [Compound C107, (R)-N-(4-(1-(4-acetamidophenyl)pyrrolidin-2-yl)thiazol-2-yl)-1-((tetrahydro-2H-pyran-4-yl)methyl)-1H-pyrrole-2-carboxamide] | > 25000 | 16.4 | 2160 | 18.2 | 793 | 24.6 | 23.7 | 56.2 | 87.1 | 2.7 | 5.47 | 32.2
CCc1ccc(N2CCC[C@@H]2c2csc(NC(=O)c3cccn3CC3CCOCC3)n2)cc1 [Compound C110, (R)-N-(4-(1-(4-ethylphenyl)pyrrolidin-2-yl)thiazol-2-yl)-1-((tetrahydro-2H-pyran-4-yl)methyl)-1H-pyrrole-2-carboxamide] | > 25000 | 74.3 | 1780 | 36 | 302 | 9.61 | 61.3 | 46.4 | 94.9 | 3 | 22.2 | 31.4
O=C(Nc1nc([C@H]2CCCN2c2ccccc2)cs1)c1cccn1-c1cccc2cnccc12 [Compound C111, (R)-1-(isoquinolin-5-yl)-N-(4-(1-phenylpyrrolidin-2-yl)thiazol-2-yl)-1H-pyrrole-2-carboxamide] | > 25000 | 0.64 | > 25000 | 0.62 | 4940 | 15.5 | 0.86 | 295 | 654 | 2.1 | 0.28 | 318
N#CC[C@@H](O)Cn1cccc1C(=O)Nc1nc([C@H]2CCCN2c2ccccc2)cs1 [Compound C112, 1-((R)-3-cyano-2-hydroxypropyl)-N-(4-((R)-1-phenylpyrrolidin-2-yl)thiazol-2-yl)-1H-pyrrole-2-carboxamide] | > 25000 | 3.03 | 20700 | 12.6 | 9740 | 17.9 | 23.6 | 2240 | 2290 | 4.2 | 13.1 | 545
CCC(CC#N)Cn1cccc1C(=O)Nc1nc([C@H]2CCCN2c2ccccc2)cs1 (stereo partly drawn) [Compound C113, 1-(2-(cyanomethyl)butyl)-N-(4-((R)-1-phenylpyrrolidin-2-yl)thiazol-2-yl)-1H-pyrrole-2-carboxamide] | > 25000 | 5.06 | 22800 | 14.8 | 16300 | 18.6 | 14.9 | 1330 | 1800 | 2 | 3.66 | 879
O=C(Nc1nc(/C=C/c2cn(CCO)cn2)cs1)c1cccn1Cc1ccncc1 [Compound C114, (E)-N-(4-(2-(1-(2-hydroxyethyl)-1H-imidazol-4-yl)vinyl)thiazol-2-yl)-1-(pyridin-4-ylmethyl)-1H-pyrrole-2-carboxamide] | > 25000 | 15.2 | > 25000 | 19.2 | > 25000 | >3.62 | 0.67 | > 25000 | > 25000 | >3.6 | 0.22 | 6900
O=C(Nc1nc([C@H]2CCCN2c2ccccc2)cs1)c1cccn1-c1csc2cnccc12 [Compound C115, (R)-N-(4-(1-phenylpyrrolidin-2-yl)thiazol-2-yl)-1-(thieno[2,3-c]pyridin-3-yl)-1H-pyrrole-2-carboxamide] | > 25000 | 1.07 | > 22800 | 2.2 | 3530 | 12.3 | 1.3 | 552 | 613 | 2.1 | 0.66 | 287
O=C(Nc1nc([C@H]2CCCN2c2ccccc2)cs1)c1cccn1CCCC1COC1 [Compound C116, (R)-1-(3-(oxetan-3-yl)propyl)-N-(4-(1-phenylpyrrolidin-2-yl)thiazol-2-yl)-1H-pyrrole-2-carboxamide] | > 25000 | 5.51 | > 25000 | 6.02 | 7540 | 7.3 | 24.8 | 1060 | 1590 | 1.5 | 6.55 | 1030
CC(=O)Nc1ccc(N2CCC[C@@H]2c2csc(NC(=O)c3cccn3C[C@@H](C)CC#N)n2)cc1 [Compound C117, N-(4-((R)-1-(4-acetamidophenyl)pyrrolidin-2-yl)thiazol-2-yl)-1-((S)-3-cyano-2-methylpropyl)-1H-pyrrole-2-carboxamide] | > 25000 | 7.53 | 1130 | 16.5 | 275 | 10.7 | 9.81 | 49.6 | 54.3 | 2.1 | 4.1 | 25.6
O=C(Nc1nc([C@H]2CCCN2c2ccccc2)cs1)c1cccn1Cc1cccc(F)c1 [Compound C118, (R)-1-(3-fluorobenzyl)-N-(4-(1-phenylpyrrolidin-2-yl)thiazol-2-yl)-1H-pyrrole-2-carboxamide] | > 25000 | 48.1 | > 25000 | 33.5 | 9780 | 13.6 | 59.7 | 732 | 1010 | 1.4 | 26.9 | 719
